Laboratory results from US5703059A, “Disaccharide ligands for selectins” (British Biotech Pharmaceuticals Ltd., priority 1993, dated 1997).
Each block holds one molecule with its values, some of them ahead of it.

Biological target: T1, E-selectin (Homo sapiens, UniProt P16581)
T1 construct: expressed in transfected cells
T1 sequence (P16581 22-610): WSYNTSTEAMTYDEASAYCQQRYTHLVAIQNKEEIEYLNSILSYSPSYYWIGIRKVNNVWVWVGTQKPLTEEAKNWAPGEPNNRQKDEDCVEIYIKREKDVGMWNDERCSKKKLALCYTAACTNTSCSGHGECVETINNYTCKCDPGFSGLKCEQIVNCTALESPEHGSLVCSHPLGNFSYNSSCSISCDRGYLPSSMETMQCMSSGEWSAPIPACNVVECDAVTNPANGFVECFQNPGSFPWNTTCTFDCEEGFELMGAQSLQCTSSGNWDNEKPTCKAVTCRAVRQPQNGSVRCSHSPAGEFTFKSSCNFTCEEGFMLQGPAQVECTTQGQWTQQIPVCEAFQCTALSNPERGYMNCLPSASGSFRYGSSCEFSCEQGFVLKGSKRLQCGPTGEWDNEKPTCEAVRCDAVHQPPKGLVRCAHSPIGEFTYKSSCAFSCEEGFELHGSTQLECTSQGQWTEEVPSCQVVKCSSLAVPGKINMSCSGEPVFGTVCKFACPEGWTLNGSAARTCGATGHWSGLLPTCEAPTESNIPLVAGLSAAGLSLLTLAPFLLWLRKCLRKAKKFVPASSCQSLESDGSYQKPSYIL
Experiment: Inhibition of E-selectin mediated adhesion of 3H-thymidine labelled U937 cells to E-selectin expressing CHO cells
Type: cell-based
Conditions: U937 binding to E-selectin expressing CHO cells, 4° C., 1 hour
Experimental: The test compounds were assayed to determine their effectiveness at inhibiting E-selectin mediated adhesion between a leucocytic cell line, U937, which expresses ligands for E-selectin, and a Chinese Hamster Ovary cell line which stably expresses E-selectin. The assay has been validated with a commercial known ligand of the E-selectin, 3'-sialyl-3-fucosyl lactose (3S'3FL).
A 96 well plate was seeded with E-selectin expressing CHO cells which were confluent on the day of the assay.
U937 cells were incubated overnight with ^3 H thymidine. (Incubation conditions: 2×10^5 U937 cells per ml, 0.0751 μCi ^3 H thymidine).
Hanks Balanced salts solution, 25 mM HEPES, 0.1% azide.
The compounds were dissolved in 1 ml of assay medium. For E8, 10% methanol was added to achieve a homogenous solution.
The pH of the compounds was adjusted to approximately pH 7.2.
The ^3 H thymidine count value at each concentration of inhibitor is the average of six replicates. Maximum binding was measured by binding U937 cells to E-Selectin CHO cells in the absence of any test compounds.
Background was measured by U937 binding to untransfected CHO cells.
On the day of assay the 96 well plate was washed 3 times in ice cold assay medium. 50 μl of test sample was added to each well and incubated on ice for 1 hour. Meanwhile the U937 cells were washed 3 times in ice cold assay medium. resuspended at a concentration of 3×10^6 cells per ml and then 50 μl was added to each plate. The plates were kept on ice and allowed to incubate at 4° C. for 1 hour. Then they were washed ×3 and the remaining cells solubilised and the radioactivity in the samples counted.
The U937 cells that were used in the 1D2 control were pre-incubated in the presence of 0.1 mg/ml gammaglobulin before addition to the plate.

- inhibition at 500 µM (0.5 mM): 54%
SMILES: CC(=O)N[C@H]1[C@H]([C@H](O)[C@H](O)CO)O[C@@](O[C@H]2[C@@H](O)[C@@H](CO)O[C@@H](O[C@H]3[C@H](O[C@@H]4O[C@@H](C)[C@@H](O)[C@@H](O)[C@@H]4O)[C@@H](O)C(O)O[C@@H]3CO)[C@@H]2O)(C(=O)O)C[C@@H]1O (stereo partly shown) [3'S3FL, 3'-sialyl-3-fucosyl lactose, reference compound]

- inhibition at 17100 µM (17.1 mM): 65%
SMILES: COC(=O)C1(OCCCC(=O)CC2(O)C(C)OC(OC)C(O)C2O)CC(O)C(NC(C)=O)C(C(O)C(O)CO)O1 [E7, α-O-Methyl-4R-[{5"N-acetyl-α2"-O-neuraminidylmethyl ester}-5'-oxy-2'-oxo-pent-1'-yl]-L-fucopyranoside]

- inhibition at 26800 µM (26.8 mM, 10% methanol added): 18.5%
SMILES: COC1OC(C)C(O)(CC(=O)CCCOC2(C(=O)O)CC(O)C(NC(C)=O)C(C(O)C(O)CO)O2)C(O)C1O [E8, α-O-Methyl-4R-[{N-acetyl-α2"-neuraminidylsodium carboxylate}5'-oxy-2'-oxo-pent-1'-yl]-L-fucopyranoside]

- inhibition at 30700 µM (30.7 mM): 21%
SMILES: COC(=O)C1(OCCCC=CC(O)CC2(O)C(C)OC(OC)C(O)C2O)CC(O)C(NC(C)=O)C(C(O)C(O)CO)O1 [E21, α-O-Methyl-4R-[{N-acetyl-α2"-neuraminidylmethyl}7'-oxy-2'R and S-hydroxy-hept-3'-en-1'-yl]-L-fucopyranoside]
